Measurements taken from a melting point compilation (Tetko et al.; mined from patent text by program, amines drawn as free bases though some values may be those of a salt).

melting point | Structure (SMILES)
212 °C | COC(=O)c1ccc2cc(-c3ccc(CO)c(C45CC6CC(CC(C6)C4)C5)c3)ccc2c1
378 °C | COc1ccc(-c2sc(Nc3cnccn3)nc2C)cc1S(N)(=O)=O
236 to 238 °C | Fc1ccccc1Cn1cnc2c(Nn3ccc4ccccc43)ncnc21
206 to 207 °C | Cc1cc2c(Cl)ccc(-n3c(=O)cc(C(F)(F)F)n(C)c3=O)c2o1
266 to 269 °C | CS(=O)(=O)c1ccc(-c2nc(C(F)(F)F)nc(NN)c2-c2ccc(Cl)cc2)cc1
220 °C | COc1ccc(-c2cc(=O)cc(N3CCOCC3)o2)cc1
65 to 66 °C | CC(=O)COc1ccc(Cl)cc1Cc1ccccc1
247 to 248 °C | CC(C)(C(=O)NC(Nc1c(Nc2cccnc2)c(=O)c1=O)C(C)(C)C)c1ccccc1 (stereo not given)
135 to 136 °C | COC(=O)C1=Cc2cc(Br)ccc2N(C(=O)OC)CC1
171 to 172 °C | Cc1c(NC(=O)c2ccc(-c3ccc4c(c3)OCO4)cc2)ccc2cc(CN3CCCC3)cnc12
120 to 121 °C | CCCN1CC(c2ccc(S(C)(=O)=O)cc2)=C(c2ccc(F)cc2)C1=O
233 to 236 °C | Nc1cnc(-c2ccc(F)cc2)n(CC(=O)NC(Cc2ccccc2)C(=O)c2nc3ccccc3o2)c1=O (stereo not given)
179 °C | COc1ccccc1C(=O)N1CCCC(=O)c2ccc(Cl)cc2CCC1=O
145 °C | Clc1nc(Cl)nc(Nc2ccc(OCc3ccccc3)c(Cl)c2)n1
> 220 °C | Nc1c(-c2csc(-c3ccncc3)n2)c(=O)[nH]c2ccc(Cl)cc12
87 to 90 °C | CCNc1ccc(-n2c(C(F)(F)F)nn(C)c2=S)c(Cl)c1
220 to 222 °C | O=C(NO)c1ccc(C(=O)NOCc2ccc3ccccc3c2)cc1
169 to 173 °C | COc1ccc2ccc(C(=O)CNC(=O)Cc3ccc4ccccc4c3)cc2c1

melting point | Structure (SMILES)
83 to 86 °C | CCCCC(O)c1cccc(NC(=O)OCc2ccccc2)c1 (stereo not given)
197 to 198 °C | CCOc1ccc(C(=O)c2c(N)sc3c2CCN(C(=O)OCc2ccccc2)C3)cc1
173 to 174 °C | Cc1oc(-c2ccccc2)nc1COc1ccccc1CCCC1SC(=O)NC1=O (stereo not given)
203 to 204 °C | CS(=O)(=O)Nc1cc(C(F)(F)F)ccc1-c1cc(Oc2ccc3cccnc3c2)ncn1
184 to 185 °C | Cc1cc(-c2[nH]c3ccc(N)cc3c2C)cc(C)c1O
168 to 170 °C | CS(=O)(=O)c1ccc(-n2nc(C(F)(F)F)cc2-c2ccc(-c3cscn3)cc2)cc1
256 °C | Cc1cc(-c2cnn3c(C(F)(F)F)cc(-c4ccc(Cl)cc4)nc23)cc(C)n1
147 to 148 °C | C/C(=C\c1ccc(OC(C)C)cc1Oc1ncc(C(F)(F)F)cc1Cl)C(=O)NS(=O)(=O)NCCc1ccccc1
235 °C | Cc1cc2ncc(Nc3ccc(Br)cc3)nc2cc1C
196 to 197 °C | Nc1nc(-c2ccccc2)c(-c2ccnc(Nc3ccccc3)n2)s1
150 to 152 °C | COc1cc2c(cc1Nc1ncc(Cl)c(Nc3ccccc3S(=O)(=O)N(C)C)n1)CCN(CCO)CC2
169 °C | Cn1c(CNCC(C)(C)O)cc2cc(NC(=O)c3ccc(OCC4CCOC4)cc3)ccc21 (stereo not given)
57 to 61 °C | COc1cc(/C=C/CCO)ccc1OCc1ccccc1
139 to 140 °C | COc1ccc(-c2cnc(N)c(SC)n2)cc1
100 to 105 °C | COC(=O)c1ccc(=O)n(-c2ccccc2)c1
153 to 155 °C | Cc1cccc(-c2[nH]c(C(C)C)nc2-c2ccc(F)c(-c3ccc(C(=O)NN4CCOCC4)cc3)c2)n1
106 °C | Cc1ncc(C=S)c(Nc2ccccc2)n1

Second part, the molecule before the results:

Structure (SMILES) | melting point
CC(=O)NCCNC(=O)c1ccc(Br)s1 | 244 to 245 °C
Cc1[nH]c(=O)[nH]c1C(=O)Cc1ccccc1 | 239 to 240 °C
O=S(=O)(NCc1ccnc2c(Cl)cccc12)c1ccc(-c2ccc(C(F)(F)F)cc2C(F)(F)F)cc1 | 184 to 185 °C
O=C(O)c1ccc(OC(F)(F)F)cc1Cl | 90.6 to 91.2 °C
C=C(C)Cn1c(S)nc2c(cnn2C)c1=O | 158 to 160 °C
CC1CCN(C2C3=CC(OC3=O)C3C(CC4(C)OC4C2OC(=O)c2ccccc2)OC(=O)C3C)CC1 (stereo not given) | 234 °C
CSC(SC)=C1C(=O)CCCC1=O | 66 to 67 °C
N#Cc1ccc(C2C(=O)N(Cc3ccc(F)cc3)Cc3cncn32)cc1 (stereo not given) | 132 to 135 °C
COC(=O)C(Cc1cc(OC)cc(OC)c1)c1ccc(Oc2ccc(CC3SC(=O)NC3=O)cc2)cc1 (stereo not given) | 125 to 128 °C
Nc1ccccc1C(=O)OCN1C(=O)c2ccccc2C1=O | 160 to 162 °C
CC(C)Oc1cc(/C=C/C(=O)O)n(Cc2ncc(C(F)(F)F)cc2Cl)n1 | 130 to 132 °C
Cc1nc(C[C@H]2CC[C@@](C)(NCC(=O)N3C[C@@H](F)C[C@H]3C#N)C2(C)C)no1 | 121 to 123 °C
Cc1nc(CC(O)Cn2cnc3c2c(=O)n(C)c(=O)n3C)no1 (stereo not given) | 148 to 150 °C
COc1cc(CCCn2cncn2)ccc1O | 97 to 98 °C
CCCc1c(OCC#CCSCCO)ccc(C(C)=O)c1O | 52 to 53 °C
CC1NC(=O)NN=C1c1ccc(OCC(=O)NCCN2CCN(C(=O)c3ccc(Cl)cc3)CC2)c(Cl)c1 (stereo not given) | 186 to 188 °C
Nc1c(C=O)cc(-n2cnnc2)cc1C(F)(F)F | 234 to 236 °C
CCC1c2ncn(CC)c2CCN1C(=S)NC(C)C (stereo not given) | 196 °C

Structure (SMILES) | melting point
CCC1(C)CN(c2c(F)c(N)c3c(=O)c(C(=O)O)cn(C4CC4)c3c2OC)CCC1NC (stereo not given) | 164 to 166 °C
CCCCCCC(=O)Nc1ncnc(NC2CC2)n1 | 195 to 197 °C
Cn1c2c(c3ccccc31)CC(C(=O)O)N(C(=O)c1ccc(Cl)cc1)C2 (stereo not given) | 262 to 263 °C
CC1(C)CCC2=C(C1=O)C(c1ccc(F)c(Br)c1)C1=C(CCS1)N2 (stereo not given) | > 270 °C
CC(C)Cn1c(Nc2cc(C(F)(F)F)ccc2C(F)(F)F)nc(C(F)(F)F)cc1=O | 136 to 138 °C
COC(=O)C1=NNC(C)=C(C(=O)OC)C1c1ccccc1[N+](=O)[O-] (stereo not given) | 203 to 205 °C
CCS(=O)(=O)N(C(C)=O)c1cc(-c2ncnc(C(F)(F)F)c2Cl)c(F)cc1C#N | 144 to 146 °C
CCOC(=O)/C(=N\OCc1ccccc1)c1csc(N)n1 | 133 to 134 °C
CCOC(=O)C(=CC=C(SC)C(=O)c1ccccc1)N(C)C | 78 °C
O=C1C(F)N(c2ccc(Oc3ccccc3)cc2)C(=S)N1c1ccccc1 (stereo not given) | 126 °C
Nc1ccc(N2CCN(Cc3ccccc3)CC2)cc1C(=O)O | 242 °C
COc1cc2c(cc1O)CN(C(=O)OC(C)(C)C)CC2 | 80 to 83 °C
CCCCCC(CC(=O)O)c1cc(C(=O)OC)c(OC)cc1OC (stereo not given) | 106 to 107 °C
CCc1ccc2c(c1)C1CN(C(=O)CCC(=O)c3ccc(F)cc3)CCC1N2 (stereo not given) | 120 to 124 °C
COC(=O)c1cc(-n2cnc(Br)c2)c(C(F)(F)F)cc1[N+](=O)[O-] | 90 °C
COc1c(C(C)C)cc(S(N)(=O)=O)c(C)c1C(=O)NCC1CCCN1C1CCCC1 (stereo not given) | 196 °C
CC(C)c1ccc(N(Cc2ccc(N(C)C)cc2)C(=O)C2CCOc3ccc(F)cc32)cc1 (stereo not given) | 95 to 98 °C
